Results as given in ChEMBL document CHEMBL3608212, “Design, synthesis, and in vivo activity of novel inhibitors of delta-5 desaturase for the treatment of metabolic syndrome” (Bioorg Med Chem Lett, 2015).

Tests used:
[1] = target: T1, Acyl-CoA (8-3)-desaturase (Homo sapiens, UniProt O60427); test: Inhibition of liver delta-5 desaturase (unknown origin)
Target sequence in this assay (O60427 whole entry): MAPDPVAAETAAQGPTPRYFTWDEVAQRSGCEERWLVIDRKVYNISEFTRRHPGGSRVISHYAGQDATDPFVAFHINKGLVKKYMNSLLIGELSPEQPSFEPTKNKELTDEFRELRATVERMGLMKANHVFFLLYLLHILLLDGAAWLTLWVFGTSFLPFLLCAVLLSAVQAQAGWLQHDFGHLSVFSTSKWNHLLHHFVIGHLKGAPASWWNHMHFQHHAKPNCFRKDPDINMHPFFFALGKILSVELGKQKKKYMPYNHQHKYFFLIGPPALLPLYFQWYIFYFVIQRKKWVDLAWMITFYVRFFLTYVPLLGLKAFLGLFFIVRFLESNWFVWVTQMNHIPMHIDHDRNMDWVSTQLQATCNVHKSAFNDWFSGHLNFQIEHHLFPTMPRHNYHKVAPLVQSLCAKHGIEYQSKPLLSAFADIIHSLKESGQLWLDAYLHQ

[2] = target: T1, Acyl-CoA (8-3)-desaturase; test: Inhibition of liver delta-5 desaturase (unknown origin) at 1 uM
Target sequence in this assay (O60427 whole entry, looked up): as the sequence (O60427 whole entry) above

[3] = Plasma concentration in mouse at 60 mg/kg, po after 0.5 hrs by LC/MS-MS analysis; assay type: ADME, organism-based
[4] = Ratio of plasma concentration in mouse at 30 mg/kg, po after 0.5 hrs to IC50 for liver delta-5 desaturase (unknown origin); assay type: ADME, organism-based; details: in vivo
[5] = Ratio of plasma concentration in mouse at 60 mg/kg, po after 0.5 hrs to IC50 for liver delta-5 desaturase (unknown origin); assay type: ADME, organism-based; details: in vivo
Mus musculus [6] = test: In vivo inhibition of delta-5 desaturase in mouse liver assessed as conversion of [14C]-DGLA to [14C]-arachidonic acid at 60 mg/kg, po after 2.5 hrs by TLC analysis relative to control; assay type: functional
[7] = Plasma concentration in mouse at 30 mg/kg, po after 0.5 hrs by LC/MS-MS analysis; assay type: ADME, organism-based
Mus musculus [8] = test: In vivo inhibition of delta-5 desaturase in mouse liver assessed as conversion of [14C]-DGLA to [14C]-arachidonic acid at 30 mg/kg, po after 2.5 hrs by TLC analysis relative to control; assay type: functional

| SMILES | IC50 [1] [nM] | other results |
| --- | --- | --- |
| FC(F)(F)Oc1ccc2[nH]nc(Nc3cccc(Cl)c3)c2c1 | > 3000 | – |
| FC(F)(F)c1ccc2[nH]nc(Nc3cccc(Cl)c3)c2c1 | 254 | – |
| CCOc1ccc(O)c(C(=O)Nc2cccc(Cl)c2)c1 | 925 | – |
| Clc1cccc(Nc2n[nH]c3ccc(Cl)cc23)c1 | 5 | – |
| Nc1ccc(F)cc1C(=O)Nc1cccc(Cl)c1 | 67 | – |
| Clc1cccc(Nc2ccnc3ccccc23)c1 | 18 | – |
| Nc1ccccc1C(=O)Nc1ccc(Cl)cc1 | – | inhibition [2]: 36% |
| Clc1cccc(Nc2ncnc3sccc23)c1 | 260 | – |
| Clc1cccc(Nc2cccc3ccccc23)c1 | 17 | – |
| Nc1ccccc1C(=O)Nc1cccc(F)c1 | 516 | – |
| Nc1ccc(Cl)cc1C(=O)Nc1cccc(Cl)c1 | 34 | – |
| Nc1ccccc1C(=O)Nc1ccccc1Cl | – | inhibition [2]: 39% |
| Nc1ccccc1C(=O)Nc1cc(Cl)cc(Cl)c1 | 245 | – |
| COc1ccc2[nH]nc(Nc3cccc(Cl)c3)c2c1 | 8 | concentration at 0.5 h [3]: 14 µM; Ratio [4]: 652; Ratio [5]: 1753; inhibition in vivo at 60 mg/kg (Mus musculus [6]): 97%; concentration at 0.5 h [7]: 5.21 µM; inhibition in vivo at 30 mg/kg (Mus musculus [8]): 75% |
| Fc1cccc(Nc2n[nH]c3ccccc23)c1 | 59 | Ratio [4]: 160; concentration at 0.5 h [7]: 9.45 µM; inhibition in vivo at 30 mg/kg (Mus musculus [8]): 18% |
| COc1ccc(O)c(C(=O)Nc2cccc(Cl)c2)c1 | 15 | – |
| Clc1cccc(Nc2n[nH]c3ccccc23)c1 | 84 | Ratio [4]: 151; concentration at 0.5 h [7]: 12.7 µM; inhibition in vivo at 30 mg/kg (Mus musculus [8]): 42% |
| Clc1cccc(NC2CCc3ccccc32)c1 (stereo not drawn) | 173 | – |
| Clc1cccc(Nc2ncnc3ccccc23)c1 | 11 | – |
| Nc1ccccc1C(=O)Nc1ccc(F)c(Cl)c1 | 155 | – |
| CC(C)c1cccc(NC(=O)c2ccccc2N)c1 | 843 | – |
| Fc1ccc2[nH]nc(Nc3cccc(Cl)c3)c2c1 | 58 | Ratio [4]: 242; concentration at 0.5 h [7]: 14.1 µM; inhibition in vivo at 30 mg/kg (Mus musculus [8]): 49% |
| Clc1cccc(Nc2ncnc3ccsc23)c1 | 50 | – |
| Cc1ccc2[nH]nc(Nc3cccc(Cl)c3)c2c1 | 6 | – |
| Clc1cccc(Nc2n[nH]c3ccc(Br)cc23)c1 | 21 | – |
| Clc1cccc(Nc2nccc3occc23)c1 | 371 | – |
| Nc1ccccc1C(=O)Nc1cccc(Cl)c1 | 58 | – |
| O=C(Nc1cccc(Cl)c1)c1ccccc1O | 174 | – |
